Assays:
Assay in all cases: relative viability (nuclei count vs DMSO), 5 days (fraction); higher = more cells survive
IA-LM = tested on: IA-LM
Method in brief: (§1)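 Lung cancer cell lines were pin-tool dosed in 1536-well plates on the day after seeding, with either a lone drug or a fixed anchor-drug dose plus five library-drug doses (not always all listed) in √10 steps. Nuclei were counted on 4× images after 5 days. Relative viability is the ratio of treated-well to vehicle-well nuclei counts, with each value a median of duplicate plates.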

NCI-H1299 = tested on: NCI-H1299
Method in brief: as §1

EMC-BAC-2 = tested on: EMC-BAC-2
Method in brief: as §1

A549 = tested on: A549
Method in brief: as §1

NCI-H1395 = tested on: NCI-H1395
Method in brief: as §1

NCI-H2170 = tested on: NCI-H2170
Method in brief: as §1

EBC-1 = tested on: EBC-1
Method in brief: as §1

NCI-H1703 = tested on: NCI-H1703
Method in brief: as §1

Calu-6 = tested on: Calu-6
Method in brief: as §1

NCI-H1623 = tested on: NCI-H1623
Method in brief: as §1

NCI-H1563 = tested on: NCI-H1563
Method in brief: as §1

Structure (SMILES)	relative viability (IA-LM; first compound 0.08 µM)	relative viability (IA-LM; first compound 0.253 µM)	relative viability (IA-LM; first compound 0.8 µM)	relative viability (IA-LM; first compound 2.53 µM)	relative viability (EMC-BAC-2; first compound 0.08 µM)	relative viability (EMC-BAC-2; first compound 0.253 µM)	relative viability (EMC-BAC-2; first compound 0.8 µM)	relative viability (EMC-BAC-2; first compound 2.53 µM)	relative viability (A549; first compound 0.08 µM)	relative viability (A549; first compound 0.8 µM)	relative viability (A549; first compound 2.53 µM)	relative viability (NCI-H1395; first compound 0.08 µM)	relative viability (NCI-H1395; first compound 0.253 µM)	relative viability (NCI-H1395; first compound 0.8 µM)	relative viability (NCI-H1395; first compound 2.53 µM)	relative viability (NCI-H2170; first compound 0.08 µM)	relative viability (NCI-H2170; first compound 0.253 µM)	relative viability (NCI-H2170; first compound 0.8 µM)	relative viability (NCI-H2170; first compound 2.53 µM)	relative viability (NCI-H1703; first compound 0.08 µM)	also measured
Oc1nc(-c2ccc(C(F)(F)F)cc2)nc2c1CSCC2 [XAV939] + CC1(C)CCC(c2ccc(Cl)cc2)=C(CN2CCN(c3ccc(C(=O)NS(=O)(=O)c4ccc(N[C@H](CCN5CCOCC5)CSc5ccccc5)c(S(=O)(=O)C(F)(F)F)c4)cc3)CC2)C1 [Navitoclax] (partner 0.5 µM)	0.89	0.698	0.781	0.463	1.28	1.04	1.1	0.793	1.49	1.12	1.06	1.11	1.33	1.2	1.16	0.427	0.441	0.501	0.422	1.33	relative viability (NCI-H1299; first compound 0.08 µM): 1.07; relative viability (NCI-H1299; first compound 0.253 µM): 1.02; relative viability (NCI-H1299; first compound 0.8 µM): 1.1; relative viability (NCI-H1299; first compound 2.53 µM): 1.04; relative viability (A549; first compound 0.253 µM): 1.06; relative viability (EBC-1; first compound 0.08 µM): 0.489; relative viability (EBC-1; first compound 0.253 µM): 0.413; relative viability (EBC-1; first compound 0.8 µM): 0.404; relative viability (EBC-1; first compound 2.53 µM): 0.447; relative viability (NCI-H1703; first compound 0.253 µM): 1.35; relative viability (NCI-H1703; first compound 0.8 µM): 0.89; relative viability (NCI-H1703; first compound 2.53 µM): 0.844; relative viability (Calu-6; first compound 0.08 µM): 0.909; relative viability (Calu-6; first compound 0.253 µM): 0.779; relative viability (Calu-6; first compound 0.8 µM): 0.867; relative viability (Calu-6; first compound 2.53 µM): 0.857
Oc1nc(-c2ccc(C(F)(F)F)cc2)nc2c1CSCC2 [XAV939] + CC(=O)Nc1cccc(-n2c(=O)n(C3CC3)c(=O)c3c(Nc4ccc(I)cc4F)n(C)c(=O)c(C)c32)c1 [Trametinib] (partner 0.02 µM)					0.972	0.875	0.78	0.671				1.02	0.974	1.11	0.944	0.882	0.833	0.822	0.72		
Oc1nc(-c2ccc(C(F)(F)F)cc2)nc2c1CSCC2 [XAV939] + CC(=O)c1c(C)c2cnc(Nc3ccc(N4CCNCC4)cn3)nc2n(C2CCCC2)c1=O [Palbociclib] (partner 0.5 µM)					0.555	0.491	0.478	0.338				0.644	0.575	0.569	0.568	0.41	0.263	0.436	0.322		
Oc1nc(-c2ccc(C(F)(F)F)cc2)nc2c1CSCC2 [XAV939] + Cc1nc(Nc2ncc(C(=O)Nc3c(C)cccc3Cl)s2)cc(N2CCN(CCO)CC2)n1 [Dasatinib] (partner 0.075 µM)					0.321	0.278	0.282	0.23				0.4	0.378	0.381	0.458	0.505	0.496	0.46	0.394		relative viability (NCI-H1623; first compound 0.08 µM): 0.474; relative viability (NCI-H1623; first compound 0.253 µM): 0.516; relative viability (NCI-H1623; first compound 0.8 µM): 0.521; relative viability (NCI-H1623; first compound 2.53 µM): 0.555; relative viability (NCI-H1563; first compound 0.08 µM): 0.422; relative viability (NCI-H1563; first compound 0.253 µM): 0.442; relative viability (NCI-H1563; first compound 0.8 µM): 0.475; relative viability (NCI-H1563; first compound 2.53 µM): 0.415
Oc1nc(-c2ccc(C(F)(F)F)cc2)nc2c1CSCC2 [XAV939] + NC(=O)Nc1cc(-c2cccc(F)c2)sc1C(=O)N[C@H]1CCCNC1 [AZD7762] (partner 0.2 µM)					1.1	1.04	0.95	0.878				0.389	0.384	0.377	0.366	0.867	0.692	0.823	0.532	0.156	relative viability (NCI-H1703; first compound 0.253 µM): 0.137; relative viability (NCI-H1703; first compound 0.8 µM): 0.138; relative viability (NCI-H1703; first compound 2.53 µM): 0.111
Oc1nc(-c2ccc(C(F)(F)F)cc2)nc2c1CSCC2 [XAV939] + Nc1nc2[nH]cc(CCc3ccc(C(=O)N[C@@H](CCC(=O)O)C(=O)O)cc3)c2c(=O)[nH]1 [Pemetrexed] (partner 0.2 µM)					0.454	0.399	0.412	0.344				0.875	0.832	0.805	0.908	0.255	0.246	0.265	0.258		relative viability (NCI-H1563; first compound 0.08 µM): 0.823; relative viability (NCI-H1563; first compound 0.253 µM): 0.685; relative viability (NCI-H1563; first compound 0.8 µM): 0.659; relative viability (NCI-H1563; first compound 2.53 µM): 0.47
Oc1nc(-c2ccc(C(F)(F)F)cc2)nc2c1CSCC2 [XAV939] + Nc1ncn([C@H]2C[C@H](O)[C@@H](CO)O2)c(=O)n1 [Decitabine] (partner 2 µM)					1.04	0.935	0.884	0.721	0.291	0.315	0.228	0.77	0.683	0.795	0.688	0.472	0.484	0.455	0.385		
Oc1nc(-c2ccc(C(F)(F)F)cc2)nc2c1CSCC2 [XAV939] + O=C(CCCCCCC(=O)Nc1ccccc1)NO [Vorinostat] (partner 1 µM)	1.08	0.664	0.951	0.778	0.175	0.447	0.379	0.289				0.746	0.774	0.725	0.849	0.86	0.614	0.739	0.543		
Oc1nc(-c2ccc(C(F)(F)F)cc2)nc2c1CSCC2 [XAV939] + O=C(c1cc(Cc2n[nH]c(=O)c3ccccc23)ccc1F)N1CCN(C(=O)C2CC2)CC1 [Olaparib] (partner 8 µM)	0.824	0.633	0.728	0.699	0.533	0.477	0.478	0.301	0.357	0.246	0.19	0.47	0.449	0.478	0.425	0.56	0.451	0.5	0.402	0.415	relative viability (NCI-H1299; first compound 0.08 µM): 0.937; relative viability (NCI-H1299; first compound 0.253 µM): 0.883; relative viability (NCI-H1299; first compound 0.8 µM): 0.931; relative viability (NCI-H1299; first compound 2.53 µM): 0.914; relative viability (A549; first compound 0.253 µM): 0.265; relative viability (EBC-1; first compound 0.08 µM): 0.722; relative viability (EBC-1; first compound 0.253 µM): 0.623; relative viability (EBC-1; first compound 0.8 µM): 0.619; relative viability (EBC-1; first compound 2.53 µM): 0.607; relative viability (NCI-H1703; first compound 0.253 µM): 0.236; relative viability (NCI-H1703; first compound 0.8 µM): 0.408; relative viability (NCI-H1703; first compound 2.53 µM): 0.485; relative viability (Calu-6; first compound 0.08 µM): 0.556; relative viability (Calu-6; first compound 0.253 µM): 0.547; relative viability (Calu-6; first compound 0.8 µM): 0.544; relative viability (Calu-6; first compound 2.53 µM): 0.504
